Measured values: US20210120812A1, “FRESHNESS-RETENTIVE FILM” (MITSUI CHEMICALS TOHCELLO, INC., priority 2013, published 2021)

System: Escherichia coli (E. coli)
Test: Antibacterial test according to JIS Z2801 using E. coli (film surface not wiped with alcohol)
Format: cell-based
Settings: judgement in the text
Protocol: For example, in an antibacterial test according to JIS Z2801, a predetermined amount of Escherichia coli (E. coli) or the like is added to a 1/500 nutrient broth. The nutrient broth is dropped onto the surface of the film of a 4 cm square, and is covered with a polyethylene film. The sample is placed at 35° C. After 24 hours, the surface of the freshness-retentive film is washed to recover the nutrient broth. The number of bacterial cells is measured with a nutrient agar. In this test method, alkyldiethanolamine should be diffused in the nutrient broth (solution) in a concentration of 30 ppm or more.
An antibacterial test was performed using Escherichia coli (E. coli) according to JIS Z2801. To keep the state of the surface of the freshness-retentive film, the surface thereof was not wiped with alcohol.
Predetermined amounts of Escherichia coli (E. coli), Staphylococcus aureus, Salmonella, and Vibrio parahaemolyticus (broth (0.4 cc) used in a JIS test) were added to a 1/500 nutrient broth. The nutrient broth was dropped onto the surface of a freshness-retentive film of a 4 cm square, and was covered with a polyethylene film. The film was placed at 35° C., and after 24 hours, the surface of the freshness-retentive film was washed. The washing liquid containing the nutrient broth was recovered, and was cultured on a nutrient agar. The number of colonies was counted.
Since the number of bacterial cells is difficult to count under a microscope, the number of colonies was visually counted. The number of colonies per gram (g) was defined as the number of living bacterial cells CFU (colony forming unit) (unit: [colonies/g]). A sample sandwiched between two polyethylene films was used as a control (Control) for comparison. In Tables, the averages at n=1 to 3 are also shown. If a fluctuation in the measured values is 10 times or more, the average is not calculated according to the JIS specification.
An antibacterial test was performed in the same manner as in Experiment 1.
An antibacterial test was performed in the same manner as in Experiment 1. […]

Molecule | antibacterial characteristics against E. coli (in words)
CCCCCCCCCCCCCCCCCC(=O)OCC(O)CO (stereo not drawn) [glycerol monostearate] | inhibits the antibacterial activity of stearyldiethanolamine
CCCCCCCCCCCCCCCCCCN(CCO)CCO [stearyldiethanolamine] | significantly superior to those of stearyldiethanolamine monostearate
diglycerol monopalmitate | does not inhibit the antibacterial activity of stearyldiethanolamine
